{"source": "paper PMC9945863", "about": "“Pyridine based dual binding site aromatase (CYP19A1) inhibitors” (RSC Medicinal Chemistry, 2023)", "key": {"Aromatase (CYP19A1)": {"biological_target": "T1, Aromatase (CYP19A1) (Homo sapiens, UniProt P11511)", "T1 construct": "placental choriocarcinoma JEG-3 cells, known to have high aromatase activity; host or cells: JEG-3", "T1 sequence (P11511 1-503)": "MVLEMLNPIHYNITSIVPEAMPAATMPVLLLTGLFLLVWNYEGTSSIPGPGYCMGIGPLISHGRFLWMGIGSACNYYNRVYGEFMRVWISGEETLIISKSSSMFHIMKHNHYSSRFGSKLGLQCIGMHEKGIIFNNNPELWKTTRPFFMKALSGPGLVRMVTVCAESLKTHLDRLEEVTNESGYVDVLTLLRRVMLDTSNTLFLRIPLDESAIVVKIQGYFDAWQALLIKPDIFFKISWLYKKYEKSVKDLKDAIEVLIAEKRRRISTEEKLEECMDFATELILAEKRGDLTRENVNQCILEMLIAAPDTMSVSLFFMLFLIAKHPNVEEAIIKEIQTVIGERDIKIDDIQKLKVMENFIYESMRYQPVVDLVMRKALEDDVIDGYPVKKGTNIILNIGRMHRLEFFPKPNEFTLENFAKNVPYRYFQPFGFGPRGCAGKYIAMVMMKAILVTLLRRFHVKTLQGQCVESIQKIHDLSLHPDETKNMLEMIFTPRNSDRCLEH", "test": "Aromatase activity, modified tritiated water assay in JEG-3 cells", "assay_type": "cell-based", "description": "Briefly, placental choriocarcinoma JEG-3 cells, known to have high aromatase activity, were grown to approximately 80% confluence in six-well culture plates. Once established, cells were treated with androst-4-ene-3,17-dione[1β-^3H] as aromatase substrate. Aromatase activity was measured in the absence and presence of inhibitors (Fig. 3).\nAromatase activity results were determined as a concentration of product formed per mg of protein per hour.\nAromatase activity was assayed using a modified tritiated water assay as previously reported.[12] JEG-3 cells were grown in 1 mL EMEM to approximately 80% confluence in six-well cell culture plates. Androst-4-ene-3,17-dione[1β-^3H] was dissolved in serum-free cell culture medium and added into each well. Aromatase activity was measured in the absence and presence of inhibitor (0.001–10 nM). After a 1 h incubation at 37 °C followed by a 5 min incubation on ice, 500 μL of culture medium was taken from each well. Medium was vortexed with 2% dextran-treated charcoal (Sigma-Aldrich) in PBS and centrifuged at 4000 rpm. The supernatant containing the product, [^3H] H2O, was quantified by scintillation counting. Cell protein concentrations were determined using Pierce BCA assay kit (Thermo Fisher Scientific). Aromatase activity results were determined as a concentration of product formed per mg of protein per hour (pmol mg^−1 h^−1)."}, "[1]": {"conditions": "heterocyclic nitrogen basicity; cited from earlier work"}, "CYP2A6": {"test_system": "CYP2A6", "set-up": "method as in PMID 19198839, PMID 28977209", "conditions": "cited from earlier work"}, "CYP2C19 [2]": {"test_system": "CYP2C19", "set-up": "method as in PMID 19198839, PMID 28977209", "conditions": "cited from earlier work"}, "CYP1A2 [3]": {"biological_target": "T2, CYP1A2 (Homo sapiens, UniProt P05177)", "T2 construct": "using a human liver microsomal assay with a CYP isoform specific probe substrate; tissue Cyprotex Discovery Limited; host or cells: human liver microsomes", "T2 sequence (P05177 1-516)": "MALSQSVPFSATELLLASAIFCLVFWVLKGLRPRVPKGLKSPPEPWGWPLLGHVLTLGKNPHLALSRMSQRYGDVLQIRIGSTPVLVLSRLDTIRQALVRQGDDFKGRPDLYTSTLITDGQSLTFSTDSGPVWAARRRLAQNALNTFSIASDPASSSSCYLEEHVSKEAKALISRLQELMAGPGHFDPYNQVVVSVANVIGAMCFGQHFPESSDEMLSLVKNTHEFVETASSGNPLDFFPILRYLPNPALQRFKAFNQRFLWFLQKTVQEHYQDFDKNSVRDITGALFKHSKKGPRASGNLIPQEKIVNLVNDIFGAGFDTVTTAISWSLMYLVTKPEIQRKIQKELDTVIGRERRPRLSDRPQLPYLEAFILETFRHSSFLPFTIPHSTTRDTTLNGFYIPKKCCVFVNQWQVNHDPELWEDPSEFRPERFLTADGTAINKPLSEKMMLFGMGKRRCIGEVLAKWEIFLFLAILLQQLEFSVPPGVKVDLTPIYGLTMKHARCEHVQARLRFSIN", "test": "CYP panel inhibition, human liver microsomal assay (Cyprotex)", "assay_type": "in vitro ADME", "conditions": "human liver microsomes, isoform specific probe substrate"}, "[4]": {"biological_target": "T3, CYP1A2 (relative to CYP19A1) (Homo sapiens, UniProt P05177)", "T3 construct": "using a human liver microsomal assay with a CYP isoform specific probe substrate; tissue Cyprotex Discovery Limited; host or cells: human liver microsomes", "T3 sequence (P05177 1-516)": "T2 sequence (P05177 1-516)", "test": "CYP panel inhibition, human liver microsomal assay (Cyprotex)", "assay_type": "in vitro ADME", "conditions": "human, human liver microsomes; ratio of CYP IC50 to CYP19A1 IC50; read-out: Selectivity CYP19A1 compared with CYP1A2"}, "CYP2C9 [5]": {"biological_target": "T4, CYP2C9 (Homo sapiens, UniProt P11712)", "T4 construct": "tissue Cyprotex Discovery Limited; host or cells: human liver microsomes", "T4 sequence (P11712 whole entry, canonical isoform)": "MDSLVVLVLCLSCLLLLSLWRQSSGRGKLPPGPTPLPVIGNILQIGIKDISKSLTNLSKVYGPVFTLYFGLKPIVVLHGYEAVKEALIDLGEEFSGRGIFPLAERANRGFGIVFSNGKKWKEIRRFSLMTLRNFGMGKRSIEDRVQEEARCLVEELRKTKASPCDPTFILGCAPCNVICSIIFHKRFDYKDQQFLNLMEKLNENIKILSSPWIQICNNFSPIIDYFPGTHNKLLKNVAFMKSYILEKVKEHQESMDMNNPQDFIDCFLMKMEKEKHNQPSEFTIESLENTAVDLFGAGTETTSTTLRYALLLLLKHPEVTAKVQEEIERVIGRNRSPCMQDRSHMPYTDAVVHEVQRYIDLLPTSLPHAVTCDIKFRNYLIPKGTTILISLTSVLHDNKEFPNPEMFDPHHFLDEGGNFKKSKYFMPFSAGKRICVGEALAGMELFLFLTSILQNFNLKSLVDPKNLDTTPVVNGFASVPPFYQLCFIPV", "test": "CYP panel inhibition, human liver microsomal assay (Cyprotex)", "assay_type": "in vitro ADME", "conditions": "human liver microsomes, isoform specific probe substrate"}, "[6]": {"biological_target": "T5, CYP2C9 (relative to CYP19A1) (Homo sapiens, UniProt P11712)", "T5 construct": "using a human liver microsomal assay with a CYP isoform specific probe substrate; tissue Cyprotex Discovery Limited; host or cells: human liver microsomes", "T5 sequence (P11712 whole entry, canonical isoform)": "as above", "test": "CYP panel inhibition, human liver microsomal assay (Cyprotex)", "assay_type": "in vitro ADME", "conditions": "human, human liver microsomes; ratio of CYP IC50 to CYP19A1 IC50; read-out: Selectivity CYP19A1 compared with CYP2C9"}, "CYP2C19 [7]": {"biological_target": "T6, CYP2C19 (Homo sapiens, UniProt P33261)", "T6 construct": "using a human liver microsomal assay with a CYP isoform specific probe substrate; tissue Cyprotex Discovery Limited; host or cells: human liver microsomes", "T6 sequence (P33261 whole entry, canonical isoform)": "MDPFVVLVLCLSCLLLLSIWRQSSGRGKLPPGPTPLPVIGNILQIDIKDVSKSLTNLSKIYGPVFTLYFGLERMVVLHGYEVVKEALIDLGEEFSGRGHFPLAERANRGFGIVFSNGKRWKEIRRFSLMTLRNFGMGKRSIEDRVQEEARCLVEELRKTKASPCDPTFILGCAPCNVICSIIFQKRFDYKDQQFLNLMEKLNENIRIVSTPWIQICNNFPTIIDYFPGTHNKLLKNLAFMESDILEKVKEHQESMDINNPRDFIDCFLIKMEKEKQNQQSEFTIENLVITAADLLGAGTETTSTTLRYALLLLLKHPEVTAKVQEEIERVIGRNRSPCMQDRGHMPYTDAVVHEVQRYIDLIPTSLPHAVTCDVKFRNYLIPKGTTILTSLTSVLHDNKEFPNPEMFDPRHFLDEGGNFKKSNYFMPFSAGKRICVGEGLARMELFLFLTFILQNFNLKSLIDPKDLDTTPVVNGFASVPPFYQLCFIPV", "test": "CYP panel inhibition, human liver microsomal assay (Cyprotex)", "assay_type": "in vitro ADME", "conditions": "human liver microsomes, isoform specific probe substrate"}, "[8]": {"biological_target": "T7, CYP2C19 (relative to CYP19A1) (Homo sapiens, UniProt P33261)", "T7 construct": "using a human liver microsomal assay with a CYP isoform specific probe substrate; tissue Cyprotex Discovery Limited; host or cells: human liver microsomes", "T7 sequence (P33261 whole entry, canonical isoform)": "as above", "test": "CYP panel inhibition, human liver microsomal assay (Cyprotex)", "assay_type": "in vitro ADME", "conditions": "human, human liver microsomes; ratio of CYP IC50 to CYP19A1 IC50; read-out: Selectivity CYP19A1 compared with CYP2C19"}, "CYP3A4 [9]": {"biological_target": "T8, CYP3A4 (Homo sapiens, UniProt P08684)", "T8 construct": "using a human liver microsomal assay with a CYP isoform specific probe substrate; tissue Cyprotex Discovery Limited; host or cells: human liver microsomes", "T8 sequence (P08684 whole entry, canonical isoform)": "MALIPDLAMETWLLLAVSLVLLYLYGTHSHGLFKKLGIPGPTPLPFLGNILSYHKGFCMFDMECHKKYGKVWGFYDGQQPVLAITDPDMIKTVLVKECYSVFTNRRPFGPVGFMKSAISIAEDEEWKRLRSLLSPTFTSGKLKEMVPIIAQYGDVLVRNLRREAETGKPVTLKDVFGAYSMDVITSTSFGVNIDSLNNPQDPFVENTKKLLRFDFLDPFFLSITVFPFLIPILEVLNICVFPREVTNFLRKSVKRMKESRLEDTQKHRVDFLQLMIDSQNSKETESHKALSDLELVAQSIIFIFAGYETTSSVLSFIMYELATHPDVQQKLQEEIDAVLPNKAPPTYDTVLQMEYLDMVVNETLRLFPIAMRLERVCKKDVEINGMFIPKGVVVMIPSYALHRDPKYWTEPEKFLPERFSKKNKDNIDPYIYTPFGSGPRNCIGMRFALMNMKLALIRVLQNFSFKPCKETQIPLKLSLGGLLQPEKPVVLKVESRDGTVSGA", "test": "CYP panel inhibition, human liver microsomal assay (Cyprotex)", "assay_type": "in vitro ADME", "conditions": "human liver microsomes, isoform specific probe substrate"}, "[10]": {"biological_target": "T9, CYP3A4 (relative to CYP19A1) (Homo sapiens, UniProt P08684)", "T9 construct": "using a human liver microsomal assay with a CYP isoform specific probe substrate; tissue Cyprotex Discovery Limited; host or cells: human liver microsomes", "T9 sequence (P08684 whole entry, canonical isoform)": "as above", "test": "CYP panel inhibition, human liver microsomal assay (Cyprotex)", "assay_type": "in vitro ADME", "conditions": "human, human liver microsomes; ratio of CYP IC50 to CYP19A1 IC50; read-out: Selectivity CYP19A1 compared with CYP3A4"}, "[11]": {"biological_target": "CYP2D6 (relative to CYP19A1) (Homo sapiens, UniProt P10635)", "sequence (P10635 whole entry)": "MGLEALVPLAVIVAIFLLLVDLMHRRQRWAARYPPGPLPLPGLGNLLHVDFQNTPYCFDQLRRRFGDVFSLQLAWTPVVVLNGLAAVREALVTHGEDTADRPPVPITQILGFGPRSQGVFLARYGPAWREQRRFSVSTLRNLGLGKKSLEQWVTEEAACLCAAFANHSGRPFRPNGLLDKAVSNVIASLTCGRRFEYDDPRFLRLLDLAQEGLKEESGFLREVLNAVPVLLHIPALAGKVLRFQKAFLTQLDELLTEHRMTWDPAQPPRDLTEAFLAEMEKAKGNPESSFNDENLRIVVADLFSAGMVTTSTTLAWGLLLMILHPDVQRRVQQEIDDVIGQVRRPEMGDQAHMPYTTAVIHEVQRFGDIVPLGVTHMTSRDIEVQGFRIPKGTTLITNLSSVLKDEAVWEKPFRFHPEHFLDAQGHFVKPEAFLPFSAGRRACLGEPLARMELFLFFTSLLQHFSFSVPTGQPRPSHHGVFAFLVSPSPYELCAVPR", "test": "in vitro", "conditions": "Selectivity CYP19A1 compared with CYP2D6, ratio of CYP IC50 to CYP19A1 IC50"}, "CYP2D6": {"biological_target": "CYP2D6 (Homo sapiens, UniProt P10635)", "sequence (P10635 whole entry, canonical isoform)": "as the sequence (P10635 whole entry) above", "test": "CYP panel inhibition, human liver microsomal assay (Cyprotex)", "conditions": "read-out: CYP2D6 IC50; human liver microsomes, isoform specific probe substrate"}, "CYP1A2 [12]": {"test_system": "CYP1A2", "conditions": "cited from earlier work"}, "CYP2C9 [13]": {"test_system": "CYP2C9", "conditions": "cited from earlier work"}, "CYP3A4 [14]": {"test_system": "CYP3A4", "conditions": "cited from earlier work"}, "[15]": {"conditions": "JEG-3 cells, 0.001–10 nM inhibitor, 1 h incubation, triplicates, read-out: CYP19A1 IC50"}}, "note": "Read-outs that look alike come from different tables or passages of the source."}
{"smiles": "CCC#CCOc1ccc2cc(C(O)(c3ccc(Cl)cc3)c3cccnc3)oc2c1", "note": "(stereo not drawn) [Compound 11b, (4-Chlorophenyl)(6-(pent-2-yn-1-yloxy)benzofuran-2-yl)(pyridin-3-yl)methanol]", "values": [{"measurement": "IC50", "setting": "Aromatase (CYP19A1); [15]", "value": 0.00092, "unit": "µM"}]}
{"smiles": "CC#CCOc1ccc2cc(C(O)(c3cccnc3)c3ccc(Cl)cc3Cl)oc2c1", "note": "(stereo not drawn) [Compound 10d, (6-(But-2-yn-1-yloxy)benzofuran-2-yl)(2,4-dichlorophenyl)(pyridin-3-yl)methanol]", "values": [{"measurement": "IC50", "setting": "Aromatase (CYP19A1); [15]", "value": "> 0.01", "unit": "µM"}]}
{"smiles": "c1nnn[nH]1", "note": "[tetrazole]", "values": [{"measurement": "pKa", "setting": "[1]", "value": 4.8}]}
{"smiles": "CCC#CCOc1ccc2cc(C(O)(c3ccc(F)cc3)c3cccnc3)oc2c1", "note": "(stereo not drawn) [Compound 11a, (4-Fluorophenyl)(6-(pent-2-yn-1-yloxy)benzofuran-2-yl)(pyridin-3-yl)methanol]", "values": [{"measurement": "IC50", "setting": "Aromatase (CYP19A1); [15]", "value": "~0.01", "unit": "µM"}]}
{"smiles": "N#Cc1ccc(C(c2ccc(C#N)cc2)n2cncn2)cc1", "note": "[Letrozole]", "values": [{"measurement": "inhibition of CYP2A6", "setting": "CYP2A6", "value": "significant competitive inhibition"}, {"measurement": "inhibition of CYP2C19", "setting": "CYP2C19 [2]", "value": "modest inhibition"}]}
{"smiles": "CC#CCOc1ccc2cc(C(O)(c3ccc(Cl)cc3)c3cccnc3)oc2c1", "note": "(stereo not drawn) [Compound 10b, (6-(But-2-yn-1-yloxy)benzofuran-2-yl)(4-chlorophenyl)(pyridin-3-yl)methanol]", "values": [{"measurement": "IC50", "setting": "Aromatase (CYP19A1); [15]", "value": 0.00105, "unit": "µM"}]}
{"smiles": "CC#CCOc1ccc2cc(C(O)(c3ccc(Br)cc3)c3cccnc3)oc2c1", "note": "(stereo not drawn) [Compound 10c, (4-Bromophenyl)(6-(but-2-yn-1-yloxy)benzofuran-2-yl)(pyridin-3-yl)methanol]", "values": [{"measurement": "IC50", "setting": "Aromatase (CYP19A1); CYP19A1 value restated in μM in CYP profile table, read-out: IC50, CYP isoform 19A1", "value": 0.00083, "unit": "µM"}, {"measurement": "IC50", "setting": "Aromatase (CYP19A1); [15]", "value": 0.00083, "unit": "µM"}, {"measurement": "IC50", "setting": "CYP1A2 [3]", "value": "> 25000", "unit": "nM"}, {"measurement": "selectivity ratio", "setting": "[4]", "value": "> 30000"}, {"measurement": "IC50", "setting": "CYP2C9 [5]", "value": "4900 ± 940", "unit": "nM"}, {"measurement": "selectivity ratio", "setting": "[6]", "value": 5900}, {"measurement": "IC50", "setting": "CYP2C19 [7]", "value": "740 ± 160", "unit": "nM"}, {"measurement": "selectivity ratio", "setting": "[8]", "value": 892}, {"measurement": "IC50", "setting": "CYP3A4 [9]", "value": "3380 ± 510", "unit": "nM"}, {"measurement": "selectivity ratio", "setting": "[10]", "value": 4070}, {"measurement": "selectivity ratio", "setting": "[11]", "value": "> 30000"}, {"measurement": "IC50", "setting": "CYP2D6", "value": "> 25000", "unit": "nM"}]}
{"smiles": "CCC#CCOc1ccc2cc(C(O)(c3ccc(Br)cc3)c3cccnc3)oc2c1", "note": "(stereo not drawn) [Compound 11c, (4-Bromophenyl)(6-(pent-2-yn-1-yloxy)benzofuran-2-yl)(pyridin-3-yl)methanol]", "values": [{"measurement": "IC50", "setting": "Aromatase (CYP19A1); [15]", "value": 0.0049, "unit": "µM"}]}
{"smiles": "COc1ccc2cc(C(O)(c3cccnc3)c3ccc(Cl)cc3Cl)oc2c1", "note": "(stereo not drawn) [Compound 4d, (2′,4′-Dichlorophenyl)(6-methoxybenzofuran-2-yl)(pyridin-3-yl)methanol]", "values": [{"measurement": "IC50", "setting": "Aromatase (CYP19A1); [15]", "value": 0.0019, "unit": "µM"}]}
{"smiles": "CC(C)(C#N)c1cc(Cn2cncn2)cc(C(C)(C)C#N)c1", "note": "[anastrozole]", "values": [{"measurement": "inhibition of CYP1A2", "setting": "CYP1A2 [12]", "value": "some inhibition"}, {"measurement": "inhibition of CYP2C9", "setting": "CYP2C9 [13]", "value": "some inhibition"}, {"measurement": "inhibition of CYP3A4", "setting": "CYP3A4 [14]", "value": "some inhibition"}]}
{"smiles": "CC#CCOc1ccc2cc(C(O)(c3ccc(F)cc3)c3cccnc3)oc2c1", "note": "(stereo not drawn) [Compound 10a, (6-(But-2-yn-1-yloxy)benzofuran-2-yl)(4-fluorophenyl)(pyridin-3-yl)methanol]", "values": [{"measurement": "IC50", "setting": "Aromatase (CYP19A1); [15]", "value": "~0.01", "unit": "µM"}]}
{"smiles": "COc1ccc2cc(C(O)(c3ccc(Br)cc3)c3cccnc3)oc2c1", "note": "(stereo not drawn) [Compound 4c, (4-Bromophenyl)(6-methoxybenzofuran-2-yl)(pyridin-3-yl)methanol]", "values": [{"measurement": "IC50", "setting": "Aromatase (CYP19A1); [15]", "value": 0.0004, "unit": "µM"}]}
{"smiles": "CCC#CCOc1ccc2cc(C(O)(c3cccnc3)c3ccc(Cl)cc3Cl)oc2c1", "note": "(stereo not drawn) [Compound 11d, (2,4-Dichlorophenyl)(6-(pent-2-yn-1-yloxy)benzofuran-2-yl)(pyridin-3-yl)methanol]", "values": [{"measurement": "IC50", "setting": "Aromatase (CYP19A1); [15]", "value": "> 0.01", "unit": "µM"}]}
